From ChEMBL document CHEMBL1129835, “Selective cytotoxicity of certain 9-substituted ellipticines for leukemia cells in a variety of leukemia cell cultures” (1997)

Tests used:
MOLT-4 [1] = experiment: The compound was evaluated for cytotoxicity against MOLT-4 leukemia cell line; assay type: functional; conditions: Homo sapiens
NCI-H522 [2] = experiment: Cytotoxicity exhibited by the compound for total growth inhibition of non-small cell lung cancer NCI-H522 cell line; assay type: functional; conditions: Homo sapiens
MDA-MB-453 = experiment: Concentration for 50% cell kill against breast cancer MDA-MB-435 cell line was determined; assay type: functional; conditions: Homo sapiens, read-out: LC50 (the source's name)
U-251 [3] = experiment: Concentration for 50% cell kill against CNS cancer U251 cell line was determined; assay type: functional; conditions: Homo sapiens, read-out: LC50 (the source's name)
NCI-H322M [4] = experiment: Concentration for 50% cell kill against non-small cell lung cancer NCI-H322M cell line was determined; assay type: functional; conditions: Homo sapiens, read-out: LC50 (the source's name)
HCT-116 [5] = experiment: Effective dose to show cytotoxicity against colon cancer HCT116 cell line was determined; assay type: functional; conditions: Homo sapiens, read-out: ED50 (the source's name)
KM12 [6] = experiment: Concentration for 50% cell kill against colon cancer KM-12 cell line was determined; assay type: functional; conditions: Homo sapiens, read-out: LC50 (the source's name)
CAKI-1 = experiment: The compound was evaluated for cytotoxicity against CAKI-1 renal cancer cell line; assay type: functional; conditions: Homo sapiens
NCI-H322M [7] = experiment: Effective dose to show cytotoxicity against non-small cell lung cancer NCI-H322M cell line was determined; assay type: functional; conditions: Homo sapiens, read-out: ED50 (the source's name)
LOX IMVI [8] = experiment: The compound was evaluated for cytotoxicity against LOX-IMVI melanoma cell line; assay type: functional; conditions: Homo sapiens
NCI-H322M [9] = experiment: The compound was evaluated for cytotoxicity against NCI-H322M non-small cell lung cancer cell line; assay type: functional; conditions: Homo sapiens
CCRF-CEM [10] = experiment: Concentration for 50% cell kill against leukemia CCRF-CEM cell line was determined; assay type: functional; conditions: Homo sapiens, read-out: LC50 (the source's name)
OVCAR-3 [11] = experiment: Cytotoxicity exhibited by the compound for total growth inhibition of ovarian cancer OVCAR-3 cell line; assay type: functional; conditions: Homo sapiens
NCI-H23 [12] = experiment: Concentration for 50% cell kill against non-small cell lung cancer NCI-H23 cell line was determined; assay type: functional; conditions: Homo sapiens, read-out: LC50 (the source's name)
NCI-H23 [13] = experiment: Effective dose to show cytotoxicity against non-small cell lung cancer NCI-H23 cell line was determined; assay type: functional; conditions: Homo sapiens, read-out: ED50 (the source's name)
LOX IMVI [14] = experiment: Cytotoxicity exhibited by the compound for total growth inhibition of melanoma LOX IMVI cell line; assay type: functional; conditions: Homo sapiens
HCT-116 [15] = experiment: Concentration for 50% cell kill against colon cancer HCT116 cell line was determined; assay type: functional; conditions: Homo sapiens, read-out: LC50 (the source's name)
SR = experiment: Cytotoxicity exhibited by the compound for total growth inhibition of leukemia SR cell line; assay type: functional; conditions: Homo sapiens
[16] = tested on: MDA-MB-435 (Homo sapiens); experiment: Effective dose to show cytotoxicity against breast cancer MDA-MB-435 cell line was determined; conditions: read-out: ED50 (the source's name)
NCI-H522 [17] = experiment: Effective dose to show cytotoxicity against non-small cell lung cancer NCI-H522 cell line was determined; assay type: functional; conditions: Homo sapiens, read-out: ED50 (the source's name)
MOLT-4 [18] = experiment: Concentration for 50% cell kill against leukemia MOLT-4 cell line was determined; assay type: functional; conditions: Homo sapiens, read-out: LC50 (the source's name)
COLO 205 [19] = experiment: Cytotoxicity exhibited by the compound for total growth inhibition of colon cancer COLO 205 cell line; assay type: functional; conditions: Homo sapiens
MOLT-4 [20] = experiment: Effective dose to show cytotoxicity against leukemia MOLT-4 cell line was determined; assay type: functional; conditions: Homo sapiens, read-out: ED50 (the source's name)
U-251 [21] = experiment: The compound was evaluated for cytotoxicity against U251 CNS cancer cell line; assay type: functional; conditions: Homo sapiens
[22] = tested on: MDA-MB-435 (Homo sapiens); experiment: Cytotoxicity exhibited by the compound for total growth inhibition of breast cancer MDA-MB-435 cell line
MDA-N = experiment: Effective dose to show cytotoxicity against breast cancer MDA-N cell line was determined; assay type: functional; conditions: Homo sapiens, read-out: ED50 (the source's name)
T47D [23] = experiment: Effective dose to show cytotoxicity against breast cancer T-47D cell line was determined; assay type: functional; conditions: Homo sapiens, read-out: ED50 (the source's name)
U-251 [24] = experiment: Cytotoxicity exhibited by the compound for total growth inhibition of CNS cancer U251 cell line; assay type: functional; conditions: Homo sapiens
HL-60 = experiment: Cytotoxicity exhibited by the compound for total growth inhibition of leukemia HL-60 (TB) cell line; assay type: functional; conditions: Homo sapiens
SNB-19 [25] = experiment: Cytotoxicity exhibited by the compound for total growth inhibition of CNS cancer SNB-19 cell line; assay type: functional; conditions: Homo sapiens
RXF 393 [26] = experiment: Effective dose to show cytotoxicity against renal cancer RXF 393 cell line was determined; assay type: functional; conditions: Homo sapiens, read-out: ED50 (the source's name)
OVCAR-3 [27] = experiment: Concentration for 50% cell kill against ovarian cancerOVCAR-3 cell line was determined; assay type: functional; conditions: Homo sapiens, read-out: LC50 (the source's name)
CCRF-CEM [28] = experiment: Cytotoxicity exhibited by the compound for total growth inhibition of leukemia CCRF-CEM cell line; assay type: functional; conditions: Homo sapiens
T47D [29] = experiment: Cytotoxicity exhibited by the compound for total growth inhibition of breast cancer T-47D cell line; assay type: functional; conditions: Homo sapiens
MOLT-4 [30] = experiment: Cytotoxicity exhibited by the compound for total growth inhibition of leukemia MOLT-4 cell line; assay type: functional; conditions: Homo sapiens
KM12 [31] = experiment: Cytotoxicity exhibited by the compound for total growth inhibition of colon cancer KM-12 cell line; assay type: functional; conditions: Homo sapiens
SNB-75 = experiment: Concentration for 50% cell kill against CNS cancer SNB-75 cell line was determined; assay type: functional; conditions: Homo sapiens, read-out: LC50 (the source's name)
SNB-19 [32] = experiment: Concentration for 50% cell kill against CNS cancer SNB-19 cell line was determined; assay type: functional; conditions: Homo sapiens, read-out: LC50 (the source's name)
LOX IMVI [33] = experiment: Concentration for 50% cell kill against melanoma LOX IMVI cell line was determined; assay type: functional; conditions: Homo sapiens, read-out: LC50 (the source's name)
RXF 393 [34] = experiment: Cytotoxicity exhibited by the compound for total growth inhibition of renal cancer RXF 393 cell line; assay type: functional; conditions: Homo sapiens
RXF 393 [35] = experiment: Concentration for 50% cell kill against renal cancer RXF 393 cell line was determined; assay type: functional; conditions: Homo sapiens, read-out: LC50 (the source's name)
OVCAR-3 [36] = experiment: Effective dose to show cytotoxicity against ovarian cancer OVCAR-3 cell line was determined; assay type: functional; conditions: Homo sapiens, read-out: ED50 (the source's name)
OVCAR-8 = experiment: Concentration for 50% cell kill against ovarian cancerOVCAR-8 cell line was determined; assay type: functional; conditions: Homo sapiens, read-out: LC50 (the source's name)
SN12C = experiment: Effective dose to show cytotoxicity against renal cancer SN12C cell line was determined; assay type: functional; conditions: Homo sapiens, read-out: ED50 (the source's name)
M14 = experiment: Concentration for 50% cell kill against melanoma M14 cell line was determined; assay type: functional; conditions: Homo sapiens, read-out: LC50 (the source's name)
COLO 205 [37] = experiment: Concentration for 50% cell kill against colon cancer COLO 205 cell line was determined; assay type: functional; conditions: Homo sapiens, read-out: LC50 (the source's name)
HCT-116 [38] = experiment: The compound was evaluated for cytotoxicity against HCT116 colon cancer cell line; assay type: functional; conditions: Homo sapiens

Work on `Cc1c2ccncc2c(C)c2c1[nH]c1ccc(CO)cc12` yielded a GI50 (MOLT-4 [1]) of 10 nM, a TGI (NCI-H522 [2]) of 2950 nM and a CC50 (MDA-MB-453) of 6020 nM. It also gave a CC50 (U-251 [3]) of over 100000 nM, a CC50 (NCI-H322M [4]) of 35300 nM and an EC50 (HCT-116 [5]) of 50 nM. For the same compound, the CC50 (KM12 [6]) was 7380 nM, the GI50 (CAKI-1) was 370 nM and the EC50 (NCI-H322M [7]) was 620 nM. The GI50 (LOX IMVI [8]) was 370 nM, the GI50 (NCI-H322M [9]) was 620 nM and the CC50 (CCRF-CEM [10]) was over 100000 nM. The TGI (OVCAR-3 [11]) was 52100 nM, the CC50 (NCI-H23 [12]) was 79000 nM and the EC50 (NCI-H23 [13]) was 680 nM. The TGI (LOX IMVI [14]) was 3030 nM, the CC50 (HCT-116 [15]) was over 100000 nM and the TGI (SR) was 490 nM. For the same compound, the EC50 [16] was 240 nM, the EC50 (NCI-H522 [17]) was 300 nM and the CC50 (MOLT-4 [18]) was 4090 nM. The TGI (COLO 205 [19]) was 2200 nM, the EC50 (MOLT-4 [20]) was 10 nM and the GI50 (U-251 [21]) was 280 nM. For the same compound, the TGI [22] was 1610 nM, the EC50 (MDA-N) was 350 nM and the EC50 (T47D [23]) was 1420 nM. The TGI (U-251 [24]) was over 100000 nM, the TGI (HL-60) was 110 nM and the TGI (SNB-19 [25]) was 11500 nM. It also gave an EC50 (RXF 393 [26]) of 1610 nM, a CC50 (OVCAR-3 [27]) of 46200 nM and a TGI (CCRF-CEM [28]) of 1010 nM. For the same compound, the TGI (T47D [29]) was 18400 nM, the TGI (MOLT-4 [30]) was 40 nM and the TGI (KM12 [31]) was 1520 nM. The CC50 (SNB-75) was 14900 nM, the CC50 (SNB-19 [32]) was 56200 nM and the CC50 (LOX IMVI [33]) was over 100000 nM. The TGI (RXF 393 [34]) was 3890 nM, the CC50 (RXF 393 [35]) was 9430 nM and the EC50 (OVCAR-3 [36]) was 700 nM. The CC50 (OVCAR-8) was 55200 nM, the EC50 (SN12C) was 220 nM and the CC50 (M14) was 34100 nM. The CC50 (COLO 205 [37]) was 10200 nM and the GI50 (HCT-116 [38]) was 50 nM.
